Results as given in patent EP0908457B1, “3-(1,2-benzisothiazol- and isoxazol-5-Y1)-2,4(1H,3H)-pyrimidinedione or thione and 3-(1,2-benzisothiazol- and isoxazol-5-y1)-4(3H)-pyrimidinone or thione herbicidal agents” (BASF AKTIENGESELLSCHAFT, priority 1997, dated 1999).

Experiments:
[1] = tested on: Monochoria vaginalis, Presl.; experiment: Preemergence weed control under flooded paddy conditions, MOOVA (Monochoria); assay type: in vivo; settings: flooded paddy; for MOOVA herbicidal effect rating: preemergence, rated three to four weeks after treatment; for MOOVA: preemergence weeds, herbicidal effect rating 0-9, three to four weeks after treatment
[2] = tested on: Oryza sativa, (L.) Tebonnet; experiment: Rice tolerance to post-transplant applications under flooded paddy conditions (Example 187), ORYSAT (Rice, Tebonnet); settings: for ORYSAT herbicidal effect rating: rated three to four weeks after treatment; for ORYSAT: herbicidal effect rating 0-9, three to four weeks after treatment
[3] = tested on: Echinochloa oryzoides (Ard.) Fritsch.; experiment: Preemergence weed control under flooded paddy conditions, ECHORC (Watergrass (Calif.)); assay type: in vivo; settings: flooded paddy; for ECHORC herbicidal effect rating: preemergence, rated three to four weeks after treatment; for ECHORC: preemergence weeds, herbicidal effect rating 0-9, three to four weeks after treatment
Sagittaria pygmaea, L. = experiment: Preemergence weed control under flooded paddy conditions, SAGPY (Arrowhead (Pygmaea)); assay type: in vivo; settings: flooded paddy; for SAGPY herbicidal effect rating: preemergence, rated three to four weeks after treatment; for SAGPY: preemergence weeds, herbicidal effect rating 0-9, three to four weeks after treatment
[4] = tested on: Cyperus serotinus, Rottb.; experiment: Preemergence weed control under flooded paddy conditions, CYPSE (Flatsedge); assay type: in vivo; settings: for CYPSE herbicidal effect rating: preemergence, rated three to four weeks after treatment; for CYPSE: preemergence weeds, herbicidal effect rating 0-9, three to four weeks after treatment
Cyperus iria = experiment: Preemergence weed control under flooded paddy conditions, CYPIR (Rice Flatsedge); assay type: in vivo; settings: flooded paddy; for CYPIR herbicidal effect rating: preemergence, rated three to four weeks after treatment; for CYPIR: preemergence weeds, herbicidal effect rating 0-9, three to four weeks after treatment

Q: For `C=C(C(=O)OC)C(C)OCc1nsc2ccc(-n3c(=O)cc(C(F)(F)F)n(C)c3=O)cc12` (stereo not drawn) [Example 212, Methyl 3-{{5-[3,6-dihydro-3-methyl-2,6-dioxo-4-(trifluoromethyl)-1(2H)-pyrimidinyl]-1,2-benzisothiazol-3-yl}methoxy}-2-methylenebutyrate], which “MOOVA herbicidal effect rating” value ([1]; Rate 0.0313 kg/ha) is on record?
A: 4.0

Q: What about the “MOOVA herbicidal effect rating” value ([1]; Rate 0.0625 kg/ha) of the same compound?
A: 8.0

Q: What about the “MOOVA herbicidal effect rating” value ([1]; Rate 0.1250 kg/ha) of the same compound?
A: 9.0

Q: And the “MOOVA herbicidal effect rating” value ([1]; Rate 0.2500 kg/ha)?
A: 9.0

Q: What about the “ORYSAT herbicidal effect rating” value ([2]; Rate 0.0313 kg/ha) of the same compound?
A: 3.0

Q: And the “ORYSAT herbicidal effect rating” value ([2]; Rate 0.0625 kg/ha)?
A: 4.0

Q: And the “ORYSAT herbicidal effect rating” value ([2]; Rate 0.1250 kg/ha)?
A: 6.0

Q: What about the “ORYSAT herbicidal effect rating” value ([2]; Rate 0.2500 kg/ha) of the same compound?
A: 7.0

Q: What about the “ECHORC herbicidal effect rating” value ([3]; Rate 0.0313 kg/ha) of the same compound?
A: 0.0

Q: What about the “ECHORC herbicidal effect rating” value ([3]; Rate 0.0625 kg/ha) of the same compound?
A: 0.0

Q: And the “ECHORC herbicidal effect rating” value ([3]; Rate 0.1250 kg/ha)?
A: 2.0

Q: And the “ECHORC herbicidal effect rating” value ([3]; Rate 0.2500 kg/ha)?
A: 4.0

Q: What about the “SAGPY herbicidal effect rating” value (Sagittaria pygmaea, L.; Rate 0.0313 kg/ha) of the same compound?
A: 0.0

Q: What about the “SAGPY herbicidal effect rating” value (Sagittaria pygmaea, L.; Rate 0.0625 kg/ha) of the same compound?
A: 0.0

Q: And the “SAGPY herbicidal effect rating” value (Sagittaria pygmaea, L.; Rate 0.1250 kg/ha)?
A: 0.0

Q: And the “SAGPY herbicidal effect rating” value (Sagittaria pygmaea, L.; Rate 0.2500 kg/ha)?
A: 0.0

Q: What about the “CYPSE herbicidal effect rating” value ([4]; Rate 0.0313 kg/ha) of the same compound?
A: 0.0

Q: And the “CYPSE herbicidal effect rating” value ([4]; Rate 0.0625 kg/ha)?
A: 0.0

Q: What about the “CYPSE herbicidal effect rating” value ([4]; Rate 0.1250 kg/ha) of the same compound?
A: 0.0

Q: What about the “CYPSE herbicidal effect rating” value ([4]; Rate 0.2500 kg/ha) of the same compound?
A: 0.0

Q: What about the “CYPIR herbicidal effect rating” value (Cyperus iria; Rate 0.0313 kg/ha) of the same compound?
A: 0.0

Q: And the “CYPIR herbicidal effect rating” value (Cyperus iria; Rate 0.0625 kg/ha)?
A: 0.0

Q: What about the “CYPIR herbicidal effect rating” value (Cyperus iria; Rate 0.1250 kg/ha) of the same compound?
A: 0.0

Q: What about the “CYPIR herbicidal effect rating” value (Cyperus iria; Rate 0.2500 kg/ha) of the same compound?
A: 2.0

Q: With `Cn1c(C(F)(F)F)cc(=O)n(-c2ccc3snc(C(Br)S(=O)(=O)c4ccccc4)c3c2)c1=O` (stereo not drawn) [Example 407, 2,4(1H,3H)-Pyrimidinedione, 3-{3-[bromo(phenylsulfonyl)methyl]-1,2-benzisothiazol-5-yl}-1-methyl-6-(trifluoromethyl)-] as the compound, how does the MOOVA ([1]; 0.0320 kg/ha) read?
A: 6.0

Q: And the MOOVA ([1]; 0.0620 kg/ha)?
A: 7.0

Q: What about the MOOVA ([1]; 0.1250 kg/ha) of the same compound?
A: 9.0

Q: What about the MOOVA ([1]; 0.2500 kg/ha) of the same compound?
A: 9.0

Q: And the ORYSAT ([2]; 0.0320 kg/ha)?
A: 0.0

Q: What about the ORYSAT ([2]; 0.0620 kg/ha) of the same compound?
A: 2.0

Q: And the ORYSAT ([2]; 0.1250 kg/ha)?
A: 3.0

Q: What about the ORYSAT ([2]; 0.2500 kg/ha) of the same compound?
A: 5.0

Q: And the ECHORC ([3]; 0.0320 kg/ha)?
A: 0.0

Q: What about the ECHORC ([3]; 0.0620 kg/ha) of the same compound?
A: 3.0

Q: What about the ECHORC ([3]; 0.1250 kg/ha) of the same compound?
A: 7.0

Q: What about the ECHORC ([3]; 0.2500 kg/ha) of the same compound?
A: 7.0

Q: And the SAGPY (Sagittaria pygmaea, L.; 0.0320 kg/ha)?
A: 0.0

Q: And the SAGPY (Sagittaria pygmaea, L.; 0.0620 kg/ha)?
A: 2.0

Q: What about the SAGPY (Sagittaria pygmaea, L.; 0.1250 kg/ha) of the same compound?
A: 6.0

Q: And the SAGPY (Sagittaria pygmaea, L.; 0.2500 kg/ha)?
A: 7.0

Q: And the CYPSE ([4]; 0.0320 kg/ha)?
A: 0.0

Q: What about the CYPSE ([4]; 0.0620 kg/ha) of the same compound?
A: 0.0

Q: And the CYPSE ([4]; 0.1250 kg/ha)?
A: 5.0

Q: What about the CYPSE ([4]; 0.2500 kg/ha) of the same compound?
A: 7.0

Q: And the CYPIR (Cyperus iria; 0.0320 kg/ha)?
A: 3.0

Q: What about the CYPIR (Cyperus iria; 0.0620 kg/ha) of the same compound?
A: 4.0

Q: And the CYPIR (Cyperus iria; 0.1250 kg/ha)?
A: 9.0

Q: And the CYPIR (Cyperus iria; 0.2500 kg/ha)?
A: 9.0
